# Source: the METLIN SMRT retention time set (Domingo-Almenara et al. 2019)
# Assay: gradient 5% acetonitrile 3 min, to 50% in 2 min, to 85% in 15 min, held 3 min, 100 µL/min
# Conditions: column: Zorbax Extend-C18 2.1 x 50 mm; eluents: water / acetonitrile, 0.1% formic acid
# Method in brief: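 Values are retention times taken from adduct peaks that software picked and an analyst inspected. The pure standards were run as mixtures of ~100 molecules on HPLC linked to a quadrupole time-of-flight mass spectrometer, in positive and negative ionization mode. A Zorbax Extend-C18 column (2.1 × 50 mm, 1.8 μm) was used at 100 μL/min with water and acetonitrile, each including 0.1% formic acid.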
row,SMILES,RP-LC retention time [s]
1,Cc1nn(C2CCS(=O)(=O)C2)c(C)c1S(=O)(=O)NCc1ccco1 (stereo not drawn),638
2,O=C(COc1ccc(F)c(F)c1)Nc1cnc(-c2cccnc2)nc1,717
3,Cc1c(-c2noc(-c3ccc4c(c3)OCO4)n2)nnn1Cc1ccccc1,1010
4,CCOc1ccc(C(=O)N2CCC3(CC2)NCc2ccccc2-n2ccnc23)cc1,619
5,Cc1cccc(S(=O)(=O)NC2CCN(c3ccc(F)cc3)C2=O)c1 (stereo not drawn),928
6,CC(C)c1cc(C(=O)Nc2ccccc2)nn1C1CCS(=O)(=O)C1 (stereo not drawn),845
7,CCCCCn1c(SCC(=O)OCC)nc2cc(C(=O)N3CCC(C(N)=O)CC3)ccc2c1=O,783
8,CCOc1cccc(-c2noc(Cn3nc(-c4ccc(F)cc4)ccc3=O)n2)c1,1060
9,CCOc1ccc2nc(C(=O)NC3CCCCCC3)cn2n1,982
10,COc1ccccc1NC(=O)N1CCC(CNC(=O)c2ccccc2C(F)(F)F)CC1,763
11,CCOc1cc([C@@H](CS(C)(=O)=O)N2C(=O)c3cccc(NC(C)=O)c3C2=O)ccc1OC,859
12,COc1ccc(-c2cn3c(CC(=O)N4CCN(c5ccc(F)cc5)CC4)csc3n2)cc1OC,743
13,O=C(Nc1ccc2c(c1)CCCN2S(=O)(=O)c1ccccc1)OCc1ccccc1,949
14,CN1Cc2ccccc2-n2ccnc2C12CCN(C(=O)NC1CCCCC1)CC2,611
15,CCCN(C(=O)c1ccccc1F)c1nc(-c2ccc(C)cc2)cs1,1410
16,COc1ccc(C)cc1NC(=O)Cn1nc2cc(C)nc(Nc3ccc(F)cc3)n2c1=O,1100
17,CCSc1nnc(NC(=O)Cc2csc(NC(=O)c3cnccn3)n2)s1,678
18,Cc1ccc(S(=O)(=O)N2CCCN(c3ccc(=O)n(-c4ccc(F)cc4)n3)CC2)cc1C,937
19,CSc1ccc(NC(=O)CN2C(=O)C3CCCN3C(=O)c3cc(C)ccc32)cc1 (stereo not drawn),785
20,Cc1cccc(CNC(=O)C2=C3CCCN3c3ccc(F)cc3S2(=O)=O)c1,936
21,CCn1cc(-c2nc(CC(=O)Nc3ccc(Cl)cc3F)cs2)c2cccnc21,1100
22,CC(=O)N(Cc1nn(C)c2c1CN(S(=O)(=O)Cc1ccccc1Cl)CC2)c1ccccc1,835

row,SMILES,RP-LC retention time [s]
1,COc1cccc(CN2CCC(Oc3ccccc3-c3nc(-c4ccncc4)no3)C2)n1 (stereo not drawn),686
2,CCOc1ccc(NC(=O)C2CCCN(c3nnc4cccc(C)n34)C2)cc1 (stereo not drawn),724
3,CN(C)c1ccc(CNC(=O)C2CCN(S(=O)(=O)c3cn(C)cn3)CC2)cc1,550
4,O=C(NCc1ccccn1)c1csc(Nc2ccc(OC(F)(F)F)cc2)n1,674
5,CCn1nccc1C(=O)Nc1c(-c2ccccc2)nc2sc(N3CCCCC3)nn12,893
6,Cc1cc(C)n(CCNC(=O)Nc2cccs2)n1,603
7,O=C(c1ccc(Br)o1)N1CCC(c2cnn(-c3cccc(F)c3)c2)CC1,1000
8,O=c1c2cc(-c3ccc(F)cc3)nn2cnn1Cc1nc(-c2ccc(F)cc2)no1,1100
9,O=C(CCc1ccccc1)NCC(=O)Nc1nc2ccccc2[nH]1,640
10,CCOc1ccccc1-c1noc(-c2nnn(Cc3nc(-c4ccccc4OC)oc3C)c2C)n1,1070
11,CC1=C(c2ccc(C)cc2)S(=O)(=O)N=C1N1CCC(NC(=O)Cc2cccs2)CC1,858
12,CCOc1ccc2nc(C(=O)N3CCN(c4ccc(Cl)cc4)CC3)cn2n1,1000
13,COc1cccc(N2CC(c3nc4ccccc4n3CC(=O)N3CCCC3)CC2=O)c1 (stereo not drawn),619
14,O=c1ccn(-c2ccc(Cl)cc2)nc1-c1nc(-c2ccc(F)cc2)no1,929
15,Cc1cc(C)n(CCNC(=O)NC(c2ccccc2)c2ccccc2)n1,716
16,Cc1ccc(C)c2c(=O)c3c([nH]c12)CCN(CC(=O)Nc1ccccc1F)C3,641
17,COc1ccc(CC(=O)Nc2ccc3c(c2)CCC(=O)N3C)c(Cl)c1,768
18,COc1cc(C2CC(=O)c3c([nH]c(C(=O)OC4CCCCC4)c3C)C2)cc(OC)c1OC (stereo not drawn),1090
19,CCOC(=O)c1csc(NC(=O)c2ccc3ncsc3c2)n1,726
20,NC(=O)C1CCN(C(=O)CCCn2c(=O)c3cccn3c3ccc(Br)cc32)CC1,685
21,CCc1ccc(-n2nc(C)c3c(C(F)(F)F)cc(OCC(=O)N4CCCC4)nc32)cc1,1220
22,Cc1cc(NC(=O)CCc2nc(CSc3nnc(-c4ccccc4)o3)no2)ccc1Br,1040

row,SMILES,RP-LC retention time [s]
1,Cn1ncc(NC(=O)c2ccc(Cl)cc2)c(N2CCOCC2)c1=O,771
2,CN1C(=O)C2CCCCN2c2ccc(C(=O)N3CCc4ccccc4C3)cc21 (stereo not drawn),946
3,Cc1ccc2nc(-c3ccc(NC(=O)Cn4cnc(C)cc4=O)cc3)sc2c1,762
4,Cc1ccccc1CNC(=O)C1CCCN(c2nc3ccsc3c(=O)n2Cc2ccc(F)cc2)C1 (stereo not drawn),1010
5,CO[C@H]1C(=O)N(C(C)C)[C@H]1C1CCN(C(=O)C(C)C)CC1,682
6,O=C1CC(c2noc(-c3cc(F)cc(F)c3)n2)CN1c1ccc(Cl)cc1 (stereo not drawn),1100
7,Nc1cc(C2CCN(C(=O)Nc3ccccc3C(F)(F)F)CC2)no1,698
8,CCc1ccc(NC(=O)Cn2nc(N3CCSCC3)c3ccccc3c2=O)cc1,1040
9,O=C(Cn1c(=O)nc(-c2ccccc2)c2ccccc21)NCCc1ccccn1,590
10,Fc1cccc(/C=N/N=C/c2cccc(F)c2)c1,1290
11,Cn1cc(C2=CCN(C(=O)Cc3ccccc3F)CC2)c2cccnc21,855
12,CCOC(=O)C1CCN(c2nc(=O)[nH]c3ccccc23)CC1,646
13,Cc1cccc(NC(=O)Cn2nc3nc(N4CCCC(C)C4)ccn3c2=O)c1 (stereo not drawn),791
14,O=c1ccn(-c2ccc(Cl)cc2)nc1-c1nc(-c2ccc(Cl)cc2)no1,1040
15,COc1cccc(C2Cn3nnc(-c4nc(-c5ccc(Cl)cc5)no4)c3CO2)c1 (stereo not drawn),1220
16,Cn1c(=O)n(C)c2cc(S(=O)(=O)NCC(=O)O)ccc21,566
17,Cc1cc(C)cc(S(=O)(=O)N2CCC(C(=O)NCc3csc(-c4ccccc4)n3)CC2)c1,990
18,O=S(=O)(NCc1cccnc1)c1cc(-c2nnc(-c3ccccc3)o2)ccc1F,673
19,Cc1ccccc1NC(=O)C(=O)c1ccc[nH]1,862
20,CCc1nc2c(NC(=O)COC)cccn2n1,646
21,CC(=O)N(C)c1ccc(NS(=O)(=O)c2ccc(C)cc2)c([N+](=O)[O-])c1,742
22,O=C(C1CCCC1)N1CCC(c2noc(-c3ccccc3)n2)C1 (stereo not drawn),924

row,SMILES,RP-LC retention time [s]
1,Cc1ccc(NC(=O)Cn2c(=O)cc(-c3nc(C4CC4)no3)c3ccccc32)cc1F,1020
2,CCOCCCNC(=O)CC1CCN(c2ccnc(OC)n2)CC1,574
3,CSc1nnc(-c2nn(C)c3c2CN(C(=O)c2ccccc2)CC3)n1C,680
4,COc1ccc(-c2cn3c(CC(=O)Nc4cccc(C#N)c4)csc3n2)cc1OC,704
5,Cc1ccc(C(=O)NCCc2sccc2C)cc1NC1=NC2CS(=O)(=O)CC2S1 (stereo not drawn),685
6,CC(C)NC(=O)CN1C(=O)C2CCCCN2c2ccc(S(=O)(=O)N3CCCC3)cc21 (stereo not drawn),810
7,CN(CCc1noc(COc2cccc(C(F)(F)F)c2)n1)C(=O)c1cccs1,941
8,CCn1cc(-c2ccc(Cl)cc2)cc1C(=O)NCCOC,954
9,CCOC(=O)c1cccc(NS(=O)(=O)c2cc(-c3cc(C)[nH]n3)ccc2C)c1,866
10,O=C(Cn1cccc1-c1nc(-c2ccc3c(c2)OCO3)no1)Nc1ccc(Cl)cc1,1070
11,COc1ccccc1C(=O)Nc1nnc(SCc2nnc(-c3ccccc3)o2)s1,914
12,CCC(=C(c1ccccc1)c1ccc(OCCN(C)C)cc1)c1ccccc1,1010
13,COC(=O)c1cc(S(=O)(=O)N2CCCC2C(=O)Nc2ccc(Br)c(C)c2)cn1C (stereo not drawn),1010
14,CCc1sc(NC(=O)CCS(=O)(=O)Cc2ccccc2)nc1-c1ccccc1,948
15,O=C(NCc1ccc(F)cc1F)c1csc(C(=O)NC2CCCC2)n1,895
16,O=C(N[C@H]1C[C@@H]2C[C@H]1CN2C(=O)c1ccc2c(c1)OCO2)c1ccccc1,700
17,Cn1cc(S(=O)(=O)N2CCC(C(=O)Nc3cccc(F)c3)CC2)cc1C(=O)N1CCCC1,772
18,COc1ccc(OC)c(NC(=O)Nc2c(-c3ccc(F)cc3)nc3ccccn23)c1,625
19,COc1ccc(NC(=O)N2CC(Oc3ccc(-c4nc(-c5ccccc5)no4)cc3)C2)cc1,1090
20,Cc1nn(CC(=O)N2CCN(C)CC2)c(=O)c2cc(-c3ccccc3)nn12,626
21,Cc1cccc(N2CCN(C(=O)Cn3c(=O)c4nnc(C)n4c4ncccc43)CC2)c1,738
22,COc1cc(NC(=O)C2CCCN(c3cc(=O)n(C)c(=O)n3C)C2)cc(OC)c1 (stereo not drawn),708
